This is an account of results in patent US12577206B2 (BRISTOL-MYERS SQUIBB COMPANY, priority 2020, dated 2026).

The target in test [1] is T1, human FPR2 (Homo sapiens, UniProt P25090).
T1 sequence (P25090 1-351): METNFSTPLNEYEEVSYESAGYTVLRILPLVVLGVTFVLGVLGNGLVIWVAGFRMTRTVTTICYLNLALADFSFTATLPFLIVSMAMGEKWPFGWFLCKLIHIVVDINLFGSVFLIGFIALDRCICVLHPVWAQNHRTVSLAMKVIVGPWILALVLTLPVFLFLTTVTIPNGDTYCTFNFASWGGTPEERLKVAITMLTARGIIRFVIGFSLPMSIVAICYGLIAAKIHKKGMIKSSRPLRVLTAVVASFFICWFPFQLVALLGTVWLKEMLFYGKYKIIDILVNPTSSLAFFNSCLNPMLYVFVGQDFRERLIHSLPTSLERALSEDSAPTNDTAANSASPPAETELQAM
Kind of test: FPR2 cyclic adenosine monophosphate (cAMP) assay. The settings on record: CHO cells overexpressing human FPR2; forskolin 5 μM; inhibition of cAMP production; HTRF; read-out: hFPR2 cAMP2 EC50. The test is classed as cell-based. The procedure, abridged: (§1)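 Gi-coupled activity is read as suppression of forskolin-stimulated cAMP (10 μM final for FPR1, 5 μM final for FPR2; IBMX 200 μM final) in recombinant CHO cells, 30 min incubation at rt, HTRF detection.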

The target of test [2] is T2, human FPR1 (Homo sapiens, UniProt P21462).
T2 sequence (P21462 1-350): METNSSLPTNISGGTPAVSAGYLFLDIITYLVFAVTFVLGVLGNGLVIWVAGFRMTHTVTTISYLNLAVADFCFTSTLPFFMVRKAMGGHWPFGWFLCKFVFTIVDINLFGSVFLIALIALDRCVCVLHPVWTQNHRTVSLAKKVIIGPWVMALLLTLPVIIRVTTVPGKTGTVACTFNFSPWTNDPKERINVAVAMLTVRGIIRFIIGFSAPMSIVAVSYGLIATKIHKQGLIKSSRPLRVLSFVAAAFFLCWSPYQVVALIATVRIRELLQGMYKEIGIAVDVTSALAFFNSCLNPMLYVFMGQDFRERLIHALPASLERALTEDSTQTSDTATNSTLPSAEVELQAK
Kind of test: FPR1 cyclic adenosine monophosphate (cAMP) assay. The class given is cell-based. To be noted: CHO cells overexpressing human FPR1; forskolin 10 μM; inhibition of cAMP production; HTRF; read-out: hFPR1 cAMP2 EC50. The procedure, abridged: as §1

One may read the EC50 as the concentration that produces a half-maximal response. For the compound `COc1cc(F)c(-c2c(NC(=O)c3ccc(OC(F)F)cc3)c(=O)n(-c3nc(N4CCN(C)CC4)ccc3C(F)(F)F)n2C)c(F)c1` [Example 135, N-[5-(2,6-difluoro-4-methoxyphenyl)-1-methyl-2-[6-(4-methylpiperazin-1-yl)-3-(trifluoromethyl)pyridin-2-yl]-3-oxo-2,3-dihydro-1H-pyrazol-4-yl]-4-(difluoromethoxy)benzamide], the concentration for a half-maximal effect (EC50) in test [1] came out at 3 nM; in test [2] it was 2400 nM.

Turning to `COc1cc(F)c(-c2c(NC(=O)c3ccc(OC(F)F)cc3)c(=O)n(-c3cccc(N4CCN(CC5CC5)CC4)n3)n2C)c(F)c1` [Example 207, N-(2-{6-[4-(cyclopropylmethyl)piperazin-1-yl]pyridin-2-yl}-5-(2,6-difluoro-4-methoxyphenyl)-1-methyl-3-oxo-2,3-dihydro-1H-pyrazol-4-yl)-4-(difluoromethoxy)benzamide], the EC50 was determined as 3 nM in test [1] and 140 nM in test [2].

As for `COc1cc(OCC(O)C(F)(F)F)nc(-n2c(=O)c(NC(=O)c3ccc(OC(F)F)cc3)c(-c3c(F)cc(OC)cc3F)n2C)c1` (centres unmarked) [Example 380, N-(5-(2,6-Difluoro-4-methoxyphenyl)-2-(4-methoxy-6-(3,3,3-trifluoro-2-hydroxypropoxy)pyridin-2-yl)-1-methyl-3-oxo-2,3-dihydro-1H-pyrazol-4-yl)-4-(difluoromethoxy)benzamide], the EC50 in test [1] was 2 nM; in test [2] it was 2300 nM.

On to `CCOc1ccc(C(F)(F)F)c(-n2c(=O)c(NC(=O)c3ccc(OC(F)F)cc3)c(-c3c(F)cc(OC)cc3F)n2C)n1` [Example 286, N-[5-(2,6-difluoro-4-methoxyphenyl)-2-[6-ethoxy-3-(trifluoromethyl)pyridin-2-yl]-1-methyl-3-oxo-2,3-dihydro-1H-pyrazol-4-yl]-4-(difluoromethoxy)benzamide], for which the 50% effective concentration (EC50) was 3 nM in test [1] and greater than 5000 nM in test [2].

For the compound `COc1cc(F)c(-c2c(NC(=O)c3ccc(OC(F)(F)F)cc3)c(=O)n(-c3cc(C)ccn3)n2C)c(F)c1` [Example 151, N-[5-(2,6-difluoro-4-methoxyphenyl)-1-methyl-2-(4-methylpyridin-2-yl)-3-oxo-2,3-dihydro-1H-pyrazol-4-yl]-4-(trifluoromethoxy)benzamide], the figures for the EC50 in test [1] and in test [2] were 13 nM and 2700 nM, respectively.

For the compound `COc1cc(F)c(-c2c(NC(=O)c3ccc(OC(F)F)cc3)c(=O)n(-c3nccc(C4CCCCC4)c3C#N)n2C)c(F)c1` [Example 199, N-[2-(3-cyano-4-cyclohexylpyridin-2-yl)-5-(2,6-difluoro-4-methoxyphenyl)-1methyl-3-oxo-2,3-dihydro-1H-pyrazol-4-yl]-4-(difluoromethoxy)benzamide], the EC50 in test [1] came out at 5 nM; in test [2] it was 900 nM.

In the case of `COc1cccc(-n2c(=O)c(NC(=O)c3ccc(OC(F)F)cc3)c(-c3c(F)cc(OC)cc3F)n2C)c1` [Example 112, N-[5-(2,6-difluoro-4-methoxyphenyl)-2-(3-methoxyphenyl)-1-methyl-3-oxo-2,3-dihydro-1H-pyrazol-4-yl]-4-(difluoromethoxy)benzamide], the EC50 turned out to be 5 nM in test [1] and 3 nM in test [2].

Regarding `COc1cc(F)c(-c2c(NC(=O)c3ccc(OC(F)F)cc3)c(=O)n(-c3cncc(OC)n3)n2C)c(F)c1` [Example 71, N-[5-(2,6-difluoro-4-methoxyphenyl)-2-(6-methoxypyrazin-2-yl)-1-methyl-3-oxo-2,3-dihydro-1H-pyrazol-4-yl]-4-(difluoromethoxy)benzamide], the EC50 turned out to be 20 nM in test [1] and 2600 nM in test [2].

In the case of `COc1cc(F)c(-c2c(NC(=O)c3ccc(OC(F)F)cc3)c(=O)n(-c3nc(C4CC4)ccc3Br)n2C)c(F)c1` [Example 160, N-[2-(3-bromo-6-cyclopropylpyridin-2-yl)-5-(2,6-difluoro-4-methoxyphenyl)-1-methyl-3-oxo-2,3-dihydro-1H-pyrazol-4-yl]-4-(difluoromethoxy)benzamide], the EC50 in test [1] was 3 nM; in test [2], greater than 10000 nM.

Take `COc1cc(F)c(-c2c(NC(=O)c3ccc(OC(F)F)cc3)c(=O)n(-c3cccc(N4CC(C)(C)C4)n3)n2C)c(F)c1` [Example 218, N-[5-(2,6-difluoro-4-methoxyphenyl)-2-[6-(3,3-dimethylazetidin-1-yl)pyridin-2-yl]-1-methyl-3-oxo-2,3-dihydro-1H-pyrazol-4-yl]-4-(difluoromethoxy)benzamide]: the values for the EC50 in test [1] and in test [2] were 21 nM and 1500 nM, respectively.

In the case of `COc1cc(F)c(-c2c(NC(=O)c3ccc(OC(F)F)cc3)c(=O)n(-c3nc(N4CC(C)(O)C4)ccc3F)n2C)c(F)c1` [Example 210, N-[5-(2,6-difluoro-4-methoxyphenyl)-2-[3-fluoro-6-(3-hydroxy-3-methylazetidin-1-yl)pyridin-2-yl]-1-methyl-3-oxo-2,3-dihydro-1H-pyrazol-4-yl]-4-(difluoromethoxy)benzamide], the EC50 is 11 nM in test [1] and 4800 nM in test [2].

For the compound `COc1cc(F)c(-c2c(NC(=O)c3ccc(Cl)cc3)c(=O)n(-c3ccc(F)cc3)n2C)c(F)c1` [Example 15, 4-chloro-N-[5-(2,6-difluoro-4-methoxyphenyl)-2-(4-fluorophenyl)-1-methyl-3-oxo-2,3-dihydro-1H-pyrazol-4-yl]benzamide], the EC50 in test [1] is 30 nM; in test [2], greater than 10000 nM.

As for `COc1cc(F)c(-c2c(NC(=O)c3ccc(OC(F)F)cc3)c(=O)n(-c3nc(C(C)(C)O)ccc3Cl)n2C)c(F)c1` [Example 276, N-{2-[3-chloro-6-(2-hydroxypropan-2-yl)pyridin-2-yl]-5-(2,6-difluoro-4-methoxyphenyl)-1-methyl-3-oxo-2,3-dihydro-1H-pyrazol-4-yl}-4-(difluoromethoxy)benzamide], the EC50 in test [1] came to 4 nM; in test [2] it was 2890 nM.

As to `COc1cc(F)c(-c2c(NC(=O)c3ccc(OC(F)F)cc3)c(=O)n(-c3nc(NCC(C)(C)O)ccc3C(F)(F)F)n2C)c(F)c1` [Example 271, N-[5-(2,6-difluoro-4-methoxyphenyl)-2-{6-[(2-hydroxy-2-methylpropyl)amino]-3-(trifluoromethyl)pyridin-2-yl}-1-methyl-3-oxo-2,3-dihydro-1H-pyrazol-4-yl]-4-(difluoromethoxy)benzamide], the EC50 in test [1] was 3 nM; in test [2], greater than 10000 nM.

For the compound `COc1cc(F)c(-c2c(NC(=O)c3ccc(OC(F)F)cc3)c(=O)n(-c3nc(N(C)C)ccc3C(F)(F)F)n2C)c(F)c1` [Example 136, N-[5-(2,6-difluoro-4-methoxyphenyl)-2-[6-(dimethylamino)-3-(trifluoromethyl)pyridin-2-yl]-1-methyl-3-oxo-2,3-dihydro-1H-pyrazol-4-yl]-4-(difluoromethoxy)benzamide], the EC50 in test [1] is 3 nM; in test [2] it was 6800 nM.

Turning to `COc1cc(F)c(-c2c(NC(=O)c3ccc(OC(F)(F)F)cc3)c(=O)n(-c3ccccc3Cl)n2C)c(F)c1` [Example 172, N-[2-(2-chlorophenyl)-5-(2,6-difluoro-4-methoxyphenyl)-1-methyl-3-oxo-2,3-dihydro-1H-pyrazol-4-yl]-4-(trifluoromethoxy)benzamide], the figures for the EC50 in test [1] and in test [2] were 13 nM and 3300 nM, respectively.

In the case of `COc1cc(F)c(-c2c(NC(=O)c3ccc(OC(F)F)cc3)c(=O)n(-c3cc(C)cc(C)n3)n2C)c(F)c1` [Example 65, N-[5-(2,6-difluoro-4-methoxyphenyl)-2-(4,6-dimethylpyridin-2-yl)-1-methyl-3-oxo-2,3-dihydro-1H-pyrazol-4-yl]-4-(difluoromethoxy)benzamide], the results for the EC50 in test [1] and in test [2] were 8 nM and greater than 10000 nM, respectively.

With `COc1cc(F)c(-c2c(NC(=O)c3ccc(OC(F)F)cc3)c(=O)n(-c3cccc(N4CCCCC4=O)n3)n2C)c(F)c1` [Example 150, N-[5-(2,6-difluoro-4-methoxyphenyl)-1-methyl-3-oxo-2-[6-(2-oxopiperidin-1-yl)pyridin-2-yl]-2,3-dihydro-1H-pyrazol-4-yl]-4-(difluoromethoxy)benzamide], the EC50 came to 13 nM in test [1] and 1500 nM in test [2].

As to `COc1cc(C2CCN(S(C)(=O)=O)CC2)nc(-n2c(=O)c(NC(=O)c3ccc(OC(F)F)cc3)c(-c3c(F)cc(OC)cc3F)n2C)c1` [Example 366, N-(5-(2,6-Difluoro-4-methoxyphenyl)-2-(4-methoxy-6-(1-(methylsulfonyl)piperidin-4-yl)pyridin-2-yl)-1-methyl-3-oxo-2,3-dihydro-1H-pyrazol-4-yl)-4-(difluoromethoxy)benzamide], the EC50 in test [1] is 7 nM; in test [2], greater than 10000 nM.
